Assay results reported in ChEMBL document CHEMBL3727366, “Heterocyclic compounds for the treatment of stress-related conditions” (2013).
The source made the active and inactive calls. No rule for the calls is given here.

Experiments:
[1] = target: T1, Prolactin-releasing peptide receptor (Homo sapiens, UniProt P49683); experiment: Displacement of [3H]-PrRP from human GPR10 receptor expressed in HEK293 cell membranes incubated for 90 mins by liquid scintillation counting method
T1 sequence (P49683 whole entry): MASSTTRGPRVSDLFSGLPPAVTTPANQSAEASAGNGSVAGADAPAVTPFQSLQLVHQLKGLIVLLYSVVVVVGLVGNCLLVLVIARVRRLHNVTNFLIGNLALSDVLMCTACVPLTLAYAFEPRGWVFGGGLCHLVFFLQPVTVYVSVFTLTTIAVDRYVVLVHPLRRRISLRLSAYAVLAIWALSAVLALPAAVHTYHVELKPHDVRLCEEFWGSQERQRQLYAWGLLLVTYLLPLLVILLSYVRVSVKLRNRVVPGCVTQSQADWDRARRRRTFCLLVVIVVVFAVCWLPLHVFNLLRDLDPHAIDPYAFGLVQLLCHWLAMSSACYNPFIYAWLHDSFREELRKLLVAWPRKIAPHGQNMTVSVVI

[2] = target: T1, Prolactin-releasing peptide receptor; experiment: Antagonist activity against human GPR10 receptor expressed in HEK293 cells assessed as inhibition of PrRP-induced intracellular calcium mobilization pre-incubated for 15 mins before PrRP addition by Fluo-8 dye based fluorescence imaging plate reader method; format: functional, cell-based
Rattus norvegicus [3] = experiment: Inhibition of restraint stress-induced defecation in Wistar rat at 5 mL/kg, po dosed 1 or 2 hrs before restraint stress; format: functional, organism-based
Rattus norvegicus [4] = experiment: Inhibition of tail-pinch stress-induced feeding behavior in Wistar rat at 5 mL/kg, po dosed 1 or 2 hrs before tail-pinch stimulus; format: functional, organism-based

COn1c(N[C@@H](C)c2ccc(C(F)(F)F)cc2)nc2c(c1=O)CN(C(=O)COc1ccc(Cl)cc1)CC2 was tested, and the Ki [1] was 8 nM, the IC50 [2] was 678 nM and the inhibition (Rattus norvegicus [3]) was “Active”. For the same compound, the inhibition (Rattus norvegicus [4]) was “Active”.
COn1c(N[C@H](c2ccc(Cl)cc2)C(C)C)nc2c(c1=O)CN(C(=O)c1cc3ccccc3cn1)CC2 was tested, and the Ki [1] was 26 nM, the inhibition (Rattus norvegicus [3]) was “Active” and the inhibition (Rattus norvegicus [4]) was “Active”.
With CC(C)COn1c(N[C@@H](C)c2ccc(C(F)(F)F)cc2)nc2c(c1=O)CN(C(=O)c1ccc(C#N)cc1F)CC2 the Ki [1] was 33 nM, the inhibition (Rattus norvegicus [3]) was “Active” and the inhibition (Rattus norvegicus [4]) was “Active”.
For C[C@H](Nc1nc2c(c(=O)n1N1CCOCC1)CN(C(=O)c1ccc(C#N)cc1F)CC2)c1ccc(C(F)(F)F)cc1, the Ki [1] was 3 nM, the IC50 [2] was 187 nM and the inhibition (Rattus norvegicus [3]) was “Active”. For the same compound, the inhibition (Rattus norvegicus [4]) was “Active”.
CCOn1c(N[C@@H](C)c2ccc(C(F)(F)F)cc2)nc2c(c1=O)CN(C(=O)c1ccc(C#N)cc1)CC2 was tested, and the Ki [1] was 11 nM, the IC50 [2] was 156 nM and the inhibition (Rattus norvegicus [3]) was “Active”. For the same compound, the inhibition (Rattus norvegicus [4]) was “Active”.
COn1c(N[C@@H](C)c2ccc(C(F)(F)F)cc2)nc2c(c1=O)CN(C(=O)c1cc(-c3cccs3)n(C)n1)CC2 was tested, and the Ki [1] was 20 nM, the inhibition (Rattus norvegicus [3]) was “Active” and the inhibition (Rattus norvegicus [4]) was “Active”.
COn1c(N[C@H](c2ccc(Cl)cc2)C(C)C)nc2c(c1=O)CN(C(=O)c1ccc(-n3ccnc3)cc1)CC2 was tested, and the Ki [1] was 31 nM, the inhibition (Rattus norvegicus [3]) was “Active” and the inhibition (Rattus norvegicus [4]) was “Active”.
In the case of CCOn1c(N[C@@H](C)c2ccc(C(F)(F)F)cc2)nc2c(c1=O)CN(C(=O)c1ccc(Cl)cc1)CC2, the Ki [1] is reported as 25 nM, the IC50 [2] is reported as 3710 nM and the inhibition (Rattus norvegicus [3]) is reported as “Active”. The inhibition (Rattus norvegicus [4]) was “Active”.
With CCOn1c(N[C@@H](C)c2ccc(C(F)(F)F)cc2)nc2c(c1=O)CN(C(=O)c1ccc(-c3cnco3)cc1)CC2 the Ki [1] was 20 nM, the IC50 [2] was 158 nM and the inhibition (Rattus norvegicus [3]) was “Active”. The inhibition (Rattus norvegicus [4]) was “Active”.
CCOn1c(N[C@@H](C)c2ccc(C(F)(F)F)cc2)nc2c(c1=O)CN(C(=O)c1ccc(C#N)cc1F)CC2 was tested, and the Ki [1] was 5 nM, the IC50 [2] was 227 nM and the inhibition (Rattus norvegicus [3]) was “Active”. For the same compound, the inhibition (Rattus norvegicus [4]) was “Active”.
COn1c(N[C@H](c2ccc(Cl)cc2)C(C)C)nc2c(c1=O)CN(C(=O)c1ccc3c(c1)CCC(=O)N3C)CC2 was tested, and the Ki [1] was 24 nM, the inhibition (Rattus norvegicus [3]) was “Active” and the inhibition (Rattus norvegicus [4]) was “Active”.
COn1c(N[C@H](c2ccc(Cl)cc2)C(C)C)nc2c(c1=O)CN(C(=O)c1cc3ccccn3n1)CC2 was tested, and the Ki [1] was 13 nM, the inhibition (Rattus norvegicus [3]) was “Active” and the inhibition (Rattus norvegicus [4]) was “Active”.
With COn1c(N[C@@H](C)c2ccc(C(F)(F)F)cc2)nc2c(c1=O)CN(C(=O)c1cc3cccnc3s1)CC2 the Ki [1] was 9 nM, the inhibition (Rattus norvegicus [3]) was “Active” and the inhibition (Rattus norvegicus [4]) was “Active”.
For COc1ccc(C(=O)N2CCc3nc(N[C@@H](C)c4ccc(C(F)(F)F)cc4)n(OC)c(=O)c3C2)c(OC)n1, the Ki [1] was 7 nM, the IC50 [2] was 228 nM and the inhibition (Rattus norvegicus [3]) was “Active”. For the same compound, the inhibition (Rattus norvegicus [4]) was “Active”.
In the case of COn1c(N[C@@H](C)c2ccc(C(F)(F)F)cc2)nc2c(c1=O)CN(C(=O)CCc1ccc(Cl)cc1)CC2, the Ki [1] is reported as 134 nM, the IC50 [2] is reported as 3900 nM and the inhibition (Rattus norvegicus [3]) is reported as “Active”. The inhibition (Rattus norvegicus [4]) was “Active”.
In the case of COn1c(N[C@@H](C)c2ccc(C(F)(F)F)cc2)nc2c(c1=O)CN(C(=O)COc1ccc(C#N)cc1)CC2, the Ki [1] is reported as 6 nM, the inhibition (Rattus norvegicus [3]) is reported as “Active” and the inhibition (Rattus norvegicus [4]) is reported as “Active”.
COn1c(N[C@H](c2ccc(Cl)cc2)C(C)C)nc2c(c1=O)CN(C(=O)c1ccc3c(c1)OCCO3)CC2 was tested, and the Ki [1] was 42 nM, the inhibition (Rattus norvegicus [3]) was “Active” and the inhibition (Rattus norvegicus [4]) was “Active”.
With COn1c(N[C@@H](C)c2ccc(C(F)(F)F)cc2)nc2c(c1=O)CN(C(=O)c1ccc3c(c1)OCCO3)CC2 the Ki [1] was 10 nM, the inhibition (Rattus norvegicus [3]) was “Active” and the inhibition (Rattus norvegicus [4]) was “Active”.
For COn1c(N[C@@H](C)c2ccc(C(F)(F)F)cc2)nc2c(c1=O)CN(C(=O)/C=C/c1ccc(Cl)cc1)CC2, the Ki [1] was 12 nM, the IC50 [2] was 5790 nM and the inhibition (Rattus norvegicus [3]) was “Active”. For the same compound, the inhibition (Rattus norvegicus [4]) was “Active”.
In the case of COn1c(N[C@@H](C)C2CCCCC2)nc2c(c1=O)CN(C(=O)c1ccc(Cl)cc1)CC2, the Ki [1] is reported as 108 nM, the inhibition (Rattus norvegicus [3]) is reported as “Active” and the inhibition (Rattus norvegicus [4]) is reported as “Active”.
COn1c(N[C@@H](C)c2ccc(C(F)(F)F)cc2)nc2c(c1=O)CN(C(=O)c1ccc(C)c(F)c1)CC2 was tested, and the Ki [1] was 8 nM, the inhibition (Rattus norvegicus [3]) was “Active” and the inhibition (Rattus norvegicus [4]) was “Active”.
For COn1c(N[C@@H](C)c2ccc(C(F)(F)F)cc2)nc2c(c1=O)CN(C(=O)c1ccc(Cl)o1)CC2, the Ki [1] was 48 nM, the inhibition (Rattus norvegicus [3]) was “Active” and the inhibition (Rattus norvegicus [4]) was “Active”.
In the case of C[C@H](Nc1nc2c(c(=O)n1N1CCCC1)CN(C(=O)c1ccc(C#N)cc1F)CC2)c1ccc(C(F)(F)F)cc1, the Ki [1] is reported as 6 nM, the IC50 [2] is reported as 298 nM and the inhibition (Rattus norvegicus [3]) is reported as “Active”. The inhibition (Rattus norvegicus [4]) was “Active”.
For COn1c(N[C@H](C)C2CCCCC2)nc2c(c1=O)CN(C(=O)c1ccc(C#N)cc1F)CC2, the Ki [1] was 61 nM, the inhibition (Rattus norvegicus [3]) was “Active” and the inhibition (Rattus norvegicus [4]) was “Active”.
COn1c(N[C@@H](C)c2ccc(C(F)(F)F)cc2)nc2c(c1=O)CN(C(=O)c1cc3occc3n1C)CC2 was tested, and the Ki [1] was 10 nM, the inhibition (Rattus norvegicus [3]) was “Active” and the inhibition (Rattus norvegicus [4]) was “Active”.
In the case of CCOn1c(N[C@@H](C)c2ccc(C(F)(F)F)cc2)nc2c(c1=O)CN(C(=O)c1cc3cccnc3s1)CC2, the Ki [1] is reported as 17 nM, the IC50 [2] is reported as 1680 nM and the inhibition (Rattus norvegicus [3]) is reported as “Active”. For the same compound, the inhibition (Rattus norvegicus [4]) was “Active”.
COn1c(N[C@@H](C)c2ccc(C(F)(F)F)cc2)nc2c(c1=O)CN(C(=O)CSc1ccc(Cl)cc1)CC2 was tested, and the Ki [1] was 8 nM, the IC50 [2] was 1140 nM and the inhibition (Rattus norvegicus [3]) was “Active”. The inhibition (Rattus norvegicus [4]) was “Active”.
COn1c(N[C@@H](C)c2ccc(C(F)(F)F)cc2)nc2c(c1=O)CN(C(=O)c1ccc(Cl)s1)CC2 was tested, and the Ki [1] was 15 nM, the IC50 [2] was 8790 nM and the inhibition (Rattus norvegicus [3]) was “Active”. The inhibition (Rattus norvegicus [4]) was “Active”.
In the case of COn1c(NC(C)c2ccc(Cl)cc2)nc2c(c1=O)CN(C(=O)COc1ccc(Cl)cc1)CC2 (single isomer, unassigned), the Ki [1] is reported as 15 nM, the IC50 [2] is reported as 1180 nM and the inhibition (Rattus norvegicus [3]) is reported as “Active”. For the same compound, the inhibition (Rattus norvegicus [4]) was “Active”.
For COn1c(N[C@@H](C)c2ccc(C(F)(F)F)cc2)nc2c(c1=O)CN(C(=O)c1ccc(C)s1)CC2, the Ki [1] was 10 nM, the IC50 [2] was 1130 nM and the inhibition (Rattus norvegicus [3]) was “Active”. For the same compound, the inhibition (Rattus norvegicus [4]) was “Active”.
With CC[C@H](Nc1nc2c(c(=O)n1OC)CN(C(=O)c1ccc(C#N)cc1F)CC2)c1ccc(C(F)(F)F)cc1 the Ki [1] was 8 nM, the inhibition (Rattus norvegicus [3]) was “Active” and the inhibition (Rattus norvegicus [4]) was “Active”.
With COn1c(N[C@@H](C)c2ccc(C(F)(F)F)cc2)nc2c(c1=O)CN(C(=O)c1ccc(C)c(C)c1)CC2 the Ki [1] was 4 nM, the IC50 [2] was 1030 nM and the inhibition (Rattus norvegicus [3]) was “Active”. For the same compound, the inhibition (Rattus norvegicus [4]) was “Active”.
For C[C@H](Nc1nc2c(c(=O)n1N1CCCC1)CN(C(=O)c1ccc(C#N)cc1)CC2)c1ccc(C(F)(F)F)cc1, the Ki [1] was 10 nM, the IC50 [2] was 648 nM and the inhibition (Rattus norvegicus [3]) was “Active”. The inhibition (Rattus norvegicus [4]) was “Active”.
